Values quoted from earlier work, collected in patent US20100055067A1, “PERFLUOROCARBON CONJUGATE AS A BLOOD SUBSTITUTE” (SNU R&DB Foundation, priority 2008, published 2010).
Where two headings read alike, the source gives them in different places.

Columns and labels:
[1] = relatively low boiling point

Structure (SMILES): FC(F)(F)C(F)(F)C(F)(F)C(F)(F)N(C(F)(F)C(F)(F)C(F)(F)C(F)(F)F)C(F)(F)C(F)(F)C(F)(F)C(F)(F)F [FC-43, perfluorotributylamine]
- accumulation in the internal organs (administered to test animals, liver and spleen, resulting in an adverse effect to the animals): accumulate in the internal organs such as liver and spleen for a long period of time

Structure (SMILES): FC(OC(F)(F)C(F)(OC(F)(F)C(F)(OC(F)(F)C(F)(OC(F)(F)C(F)(F)C(F)(F)F)C(F)(F)F)C(F)(F)F)C(F)(F)F)C(F)(F)F (stereo not drawn) [Freon E-4, 2-monohydrononacosafluoro-3,6,9,1 2-tetraoxa-5,8,11-trimethylpentadecan]
- accumulation in the internal organs (in vivo): accumulate in the internal organs such as liver and spleen for a long period of time

Structure (SMILES): FC1(F)OC(F)(F)C(F)(F)C1(F)F [FX-80, perfluorotetrahydrofuran]
- damage to the lung [1]: can cause substantial damage to the lung
